Data published in patent US10076504B2, “Glucagon antagonists” (Ligand Pharmaceuticals, Inc., priority 2014, dated 2018).
Entries after “also recorded” stand apart in the source; their conditions may differ. Read-outs that look alike come from different tables or passages of the source.

Assays:
[1] = Liver microsome incubation; format: in vitro ADME, human
Experimental: (§1) The compound of Formula IIIa (below) was incubated for 60 minutes at 37 C with mouse, rat, dog, monkey, and human liver microsomes.
(§2) Concentrations of IIIa were measured at multiple time points by LC-MS/MS. IIIa was stable with predicted clearance well below hepatic blood flow in all species.

[2] = Liver microsome incubation; format: in vitro ADME, mouse
Experimental: as §1, §2

[3] = Liver microsome incubation; format: in vitro ADME, rat
Experimental: as §1, §2

[4] = Liver microsome incubation; format: in vitro ADME, monkey
Experimental: as §1, §2

[5] = Pharmacokinetics after oral and IV administration; format: in vivo; conditions: IV Dose 1 mg/kg, PO Dose 3 mg/kg; for AUC(0-t) / Cmax / Tmax / clearance / half-life / Vd: plasma; for Vd: read-out: VSS
Experimental: (§3) Pharmacokinetics of IIIa were evaluated after both oral and IV administration in mice, rats, dogs, and monkeys.

[6] = Excretion experiments in rats; format: in vivo, rat
Experimental: as §3

[7] = Single ascending dose study, pharmacokinetics; format: in vivo, human; conditions: for AUC(0-inf) / Cmax / Tmax / half-life: human, plasma, po; for time to peak plasma concentrations: post dose
Experimental: (§4) Oral doses of IIIa were administered to normal healthy volunteers (NHV) and subjects with type 2 diabetes mellitus (T2DM). A single center, randomized, double-blind, placebo-controlled single ascending dose study was done in both NHV (n=48) and T2DM subjects (n=8). Dose escalation only occurred after review of safety and tolerability data from previous dose levels (n=8/cohort; 2-placebo & 6-IIIa). Dosing of the T2DM cohort was initiated only after the equivalent dose had been administered to NHV and safety data had been reviewed. All subjects were administered IIIa in the morning after an overnight fast with the exception of the NHV in the 40 mg cohort. NHV subjects in the 40 mg cohort initially received IIIa in a fasted state. Following a 3 week washout period, IIIa was readministered after breakfast at 40 mg to determine the effects of food consumption on pharmacokinetics.
(§5) This was a single center, randomized, double-blind, placebo-controlled single ascending dose study in both normal healthy volunteers (NHV) (n=48) and subjects with type 2 diabetes mellitus (T2DM) (n=8). All subjects were administered Formula IIIa as a solution formulated with Captisol® after an overnight fast with the exception of the NHV in the 40 mg cohort. The NHV 40 mg cohort initially received Formula IIIa in a fasted state. Following a washout period, subjects received 40 mg Formula IIIa after breakfast to explore the effects of food consumption on pharmacokinetics.
Plasma levels of Formula IIIa were measured by validated LC-MS/MS method. Formula IIIa was well absorbed after oral administration with peak plasma concentrations reached approximately 5-8 hours post dose. Consistent with preclinical predictions, clearance was slow and Formula IIIa was not detected in the urine.

[8] = Single ascending dose study, safety and tolerability; format: in vivo, human; conditions: for Any study drug related TEAE / Gastrointestinal disorders Diarrhoea / Gastrointestinal disorders Nausea / Gastrointestinal disorders Vomiting / Nervous systems disorders Headache: Normal Healthy Volunteers, 6 subjects; for tolerability: single oral doses 2 to 480 mg in NHV, 40 mg in T2DM subjects
Experimental: as §4, §5
In type 2 diabetes mellitus (T2DM), inappropriately elevated levels of glucagon exacerbate hyperglycemia and its associated complications. Not wishing to be bound to a particular theory, it has been observed that antagonism of glucagon action reduces blood glucose levels and hemoglobin A1c in patients with T2DM. The novel, selective, orally bioavailable glucagon receptor antagonist, Formula IIIa (below), was investigated regarding its pharmacokinetics (PK), safety, and pharmacodynamics (PD) in a first-in-human, ascending, single-dose, double blind, placebo-controlled study in normal healthy (NH) and T2DM subjects (NCT01919684).

[9] = human subjects, oral administration
[10] = 40 mg, Diabetic, 40 mg oral, Fasted
[11] = 40 mg, Normal healthy volunteer, 40 mg oral, Fasted
[12] = 40 mg, Normal healthy volunteer, 40 mg oral, Fed
[13] = NHV and T2DM subjects, single dose

1st-order kinetic rate constant ([1]; Human liver microsomes, 60 minutes at 37 C): 0.0021 min⁻¹
Predicted systemic clearance ([1]; Human, from liver microsomes): 3.18 mL/min/kg body weight
1st-order kinetic rate constant ([2]; Mouse liver microsomes, 60 minutes at 37 C): 0.0017 min⁻¹
Predicted systemic clearance ([2]; Mouse, from liver microsomes): 7.05 mL/min/kg body weight
1st-order kinetic rate constant ([3]; Rat liver microsomes, 60 minutes at 37 C): 0.0058 min⁻¹
Predicted systemic clearance ([3]; Rat, from liver microsomes): 13.8 mL/min/kg body weight
1st-order kinetic rate constant ([4]; Monkey liver microsomes, 60 minutes at 37 C): 0.0057 min⁻¹
Predicted systemic clearance ([4]; Monkey, from liver microsomes): 11.9 mL/min/kg body weight
F ([5]; Dog): 54%
F ([5]; Monkey): 21%
F ([5]; Mouse): 47%
F ([5]; Rat): 36%
AUC(0-t) ([5]; Dog): 225000 ng·h/mL
Cmax ([5]; Dog): 10900 ng/mL
Tmax ([5]; Dog): 4 h
clearance ([5]; Dog): 0.07 mL/min/kg
half-life ([5]; Dog): 46 h
Vd ([5]; Dog): 0.24 L/kg
AUC(0-t) ([5]; Monkey): 9850 ng·h/mL
Cmax ([5]; Monkey): 1250 ng/mL
Tmax ([5]; Monkey): 4 h
clearance ([5]; Monkey): 1.13 mL/min/kg
half-life ([5]; Monkey): 16.2 h
Vd ([5]; Monkey): 0.16 L/kg
AUC(0-t) ([5]; Mouse): 16300 ng·h/mL
Cmax ([5]; Mouse): 1710 ng/mL
Tmax ([5]; Mouse): 6 h
clearance ([5]; Mouse): 22.2 mL/min/kg
half-life ([5]; Mouse): 5.9 h
Vd ([5]; Mouse): 0.62 L/kg
AUC(0-t) ([5]; Rat): 7600 ng·h/mL
Cmax ([5]; Rat): 1330 ng/mL
Tmax ([5]; Rat): 2 h
clearance ([5]; Rat): 2.33 mL/min/kg
half-life ([5]; Rat): 10.9 h
Vd ([5]; Rat): 0.3 L/kg
levels detected in the urine [6]: negligible
route of excretion [6]: primarily excreted in the bile
pharmacokinetics in healthy volunteers vs diabetic subjects ([7]; 40 mg): comparable
effect of food on pharmacokinetics ([7]; 40 mg, healthy volunteers, fasted vs after breakfast): comparable
plasma exposure versus dose ([7]; 2 to 480 mg oral, human subjects): Dose dependent increases
CL/F ([7]; Diabetic, 40 mg oral, Fasted): 1.32 L/h
CL/F ([7]; Normal healthy volunteer, 40 mg oral, Fasted): 1.33 L/h
CL/F ([7]; Normal healthy volunteer, 40 mg oral, Fed): 1.67 L/h
absorption after oral administration ([7]; human subjects): well absorbed
clearance [7, 9]: slow
detection in the urine [7, 9]: not detected
AUC(0-inf) [7, 10]: 33700 ng·h/mL
Cmax [7, 10]: 1420 ng/mL
Tmax [7, 10]: 7.5 h
half-life ([7]; 40 mg, Diabetic, 40 mg oral, Fasted, read-out: t1/2 (converted)): 58.5 h
AUC(0-inf) [7, 11]: 32700 ng·h/mL
Cmax [7, 11]: 893 ng/mL
Tmax [7, 11]: 8.4 h
half-life ([7]; 40 mg, Normal healthy volunteer, 40 mg oral, Fasted, read-out: t1/2 (converted)): 51.6 h
AUC(0-inf) [7, 12]: 25200 ng·h/mL
Cmax [7, 12]: 779 ng/mL
Tmax [7, 12]: 7.2 h
half-life ([7]; 40 mg, Normal healthy volunteer, 40 mg oral, Fed, read-out: t1/2 (converted)): 53.8 h
half-life ([7]; oral administration, NH and T2DM subjects, read-out: elimination half-life (converted)): ~50 h
time to peak plasma concentrations ([7]; oral administration, human subjects): 5 to 8 h
time to peak plasma concentrations ([7]; oral administration, human subjects, listed as Formula IIIa): 5 to 8 h
Compound: Cc1cc(C)c(-c2ccc(NC(=O)[C@H](Cc3ccc(C(=O)NCCS(=O)(=O)O)cc3)c3ccc(-c4ccc(C(C)(C)C)cc4)cc3)cc2)c(C)c1 [IIIa]
absorption after oral administration ([7]; human subjects, listed as Formula IIIa): well absorbed; also recorded: well-absorbed
cases of hypoglycemia (glucose <60 mg/dL) [8, 13]: no cases of hypoglycemia
serious adverse events [8, 13]: no serious adverse events
Any study drug related TEAE ([8]; 2 mg): 0 (0.0)
Gastrointestinal disorders Diarrhoea ([8]; 2 mg): 0 (0.0)
Gastrointestinal disorders Nausea ([8]; 2 mg): 0 (0.0)
Gastrointestinal disorders Vomiting ([8]; 2 mg): 0 (0.0)
Nervous systems disorders Headache ([8]; 2 mg): 0 (0.0)
Any study drug related TEAE ([8]; 10 mg): 1 (16.7)
Gastrointestinal disorders Diarrhoea ([8]; 10 mg): 0 (0.0)
Gastrointestinal disorders Nausea ([8]; 10 mg): 0 (0.0)
Gastrointestinal disorders Vomiting ([8]; 10 mg): 0 (0.0)
Nervous systems disorders Headache ([8]; 10 mg): 1 (16.7)
Any study drug related TEAE ([8]; 40 mg): 0 (0.0)
Gastrointestinal disorders Diarrhoea ([8]; 40 mg): 0 (0.0)
Gastrointestinal disorders Nausea ([8]; 40 mg): 0 (0.0)
Gastrointestinal disorders Vomiting ([8]; 40 mg): 0 (0.0)
Nervous systems disorders Headache ([8]; 40 mg): 0 (0.0)
Any study drug related TEAE ([8]; 120 mg): 2 (33.3)
Gastrointestinal disorders Diarrhoea ([8]; 120 mg): 0 (0.0)
Gastrointestinal disorders Nausea ([8]; 120 mg): 0 (0.0)
Gastrointestinal disorders Vomiting ([8]; 120 mg): 0 (0.0)
Nervous systems disorders Headache ([8]; 120 mg): 2 (33.3)
Any study drug related TEAE ([8]; 240 mg): 2 (33.3)
Gastrointestinal disorders Diarrhoea ([8]; 240 mg): 0 (0.0)
Gastrointestinal disorders Nausea ([8]; 240 mg): 1 (16.7)
Gastrointestinal disorders Vomiting ([8]; 240 mg): 0 (0.0)
Nervous systems disorders Headache ([8]; 240 mg): 1 (16.7)
Any study drug related TEAE ([8]; 480 mg): 2 (33.3)
Gastrointestinal disorders Diarrhoea ([8]; 480 mg): 1 (16.7)
Gastrointestinal disorders Nausea ([8]; 480 mg): 1 (16.7)
Gastrointestinal disorders Vomiting ([8]; 480 mg): 1 (16.7)
Nervous systems disorders Headache ([8]; 480 mg): 0 (0.0)
study drug related treatment emergent adverse events (TEAE), NHV vs T2DM subjects ([8]; single dose): observed in the NHV but not the T2DM subjects
tolerability [8]: well tolerated
tolerability ([8]; listed as Formula IIIa): well tolerated and considered safe up to the highest dose tested
